Measurements: patent publication US20140051650A1, “VAGINAL COMPOSITIONS BASED ON ALKYL POLYGLUCOSIDES” (EFFIK S.A., priority 2011, published 2014)

What was measured:
Type in all cases: cell-based
Conditions in all cases: substance alone
[1] = test system: Lactobacillus jensenii NCIMB 13279; assay: MIC against Lactobacillus jensenii
Description: (§1) The vaginal lactobacillus strains used are the NCIMB 4505 strain of Lactobacillus crispatus, the NCIMB 13279 strain of Lactobacillus jensenii and NCIMB 702820 strain of Lactobacillus gasseri. [table] The other assayed microbial strains were cultured in the liquid media and in the incubation conditions specified in table A, following the operating procedure described above. The assay was carried out in 96-well microtitre plates. 50 μl of substance solution at the “mother” concentration alongside 50 μl of liquid medium at double concentration were deposited in the first well of each of the 8 rows while 50 μl of liquid medium at normal concentration were deposited in the remaining 11 wells. Starting from the first well of each row, 50 μl volumes were transferred from each well to the subsequent one 10 times, thus obtaining a series of 11 dilutions after doubling. The 12th well of each row was kept substance-free as a function of positive control of the bacterial growth. Subsequently, 50 μl of diluted bacterial inoculum as specified previously were deposited in all wells of the plate, except for the 11th of each row. Only the liquid medium at single concentration but bacteria-free, was deposited in the 11th well, with the aim of providing negative control for each row. The described scheme was used for the assay with each of the assayed microbial strains. […]

[2] = test system: Lactobacillus gasseri NCIMB 702820; assay: MBC against Lactobacillus gasseri
Description: (§2) The vaginal lactobacillus strains used are the NCIMB 4505 strain of Lactobacillus crispatus, the NCIMB 13279 strain of Lactobacillus jensenii and NCIMB 702820 strain of Lactobacillus gasseri. [table] The other assayed microbial strains were cultured in the liquid media and in the incubation conditions specified in table A, following the operating procedure described above. Immediately after determining the value of the MIC for each substance, a volume equivalent to 50 μl was taken from each well and streaked on the surface of plates containing the solid medium. The plates were subsequently incubated at the conditions indicated for each microbial strain. After incubation at 37° C. for 24 hours, the number of colonies grown on the medium surface was counted thus determining the number of bacteria that survived after 24 hours of contact with the substance at the concentration present in the well. The MBC value defined as the lowest concentration of each substance capable of reducing the bacterial load by 99.9% in the previously defined assay conditions was determined through comparison between the number of bacteria that survived in each well and that of the bacterial inoculum deposited initially.

[3] = test system: Lactobacillus crispatus NCIMB 4505; assay: MIC against Lactobacillus crispatus
Description: as §1

[4] = test system: Lactobacillus gasseri NCIMB 702820; assay: MIC against Lactobacillus gasseri
Description: as §1

Streptococcus agalactiae = assay: Minimum Bactericidal Concentration (MBC) in liquid medium against Streptococcus agalactiae
Description: Three Streptococcus agalactiae strains isolated from vaginal-rectal buffers during the prenatal check-ups were used for the assay. The strains were named “strain 2”, “strain 10” and “strain 11”. Isolation was carried out on a blood agar medium and identification was obtained through biochemical tests of the API 20 Strep (Bio-Mérieux) system and through the identification of the Lancefield group.
The experiments were also carried out on a Streptococcus agalactiae ATCC 12386 strain.
“Brain Heart Infusion broth” (BHIb, Becton Dickinson) medium was used for the Streptococcus agalactiae culture, “Mueller-Hinton broth” (M-Hb) medium after adding 2% “laked” horse blood and the “Mueller-Hinton agar” (M-Ha) medium with addition of defibrinated horse blood at 5% (Oxoid) were used for the antimicrobial activity assays.
The Streptococcus agalactiae strains were cultured in BHIb broth for 24 hours at 37° C. Immediately before the assay, the bacterial suspensions were diluted up to obtaining turbidity equivalent to 0.5 McFarland standard. 50 μl of a further 1:100 dilution in broth+blood at 2% were distributed in the wells of the microtitre plates. The presumed titre of the inoculum carried out through this procedure is of about 5×10^4 ufc (units forming colony)/well.
The bacterial cultures were also diluted serially according to a value 10 (up to a dilution value equivalent to 10^−7) and an aliquot of 0.1 ml of each dilution was double streaked on M-Ha +blood 5% for determining the actual titre to be used, subsequently, to determine the MBC (Minimum Bactericidal Concentration).
The assay was carried out in 96-well microtitre plates. 50 μl of M-Hb at normal concentration were deposited in the first well of each of the 5 rows. Starting from the first well of each row, […] volumes were transferred from each well to the subsequent one 10 times, thus obtaining a series of dilutions after doubling. The 12th well of each row was kept substance-free as a positive control of the bacterial growth.
Subsequently, 50 μl of bacterial inoculum of M-Hb+double concentration blood (4%) were deposited in all wells of the plate, except for the 11th of each row. Only M-Hb+double concentration blood but bacteria-free, were deposited in the 11th well, with the aim of providing negative control for each row. The described scheme was used for the assay of each of the three Streptococcus agalactiae strains.
as §2, with “Immediately” for “The vaginal lactobacillus strains used are the NCIMB 4505 strain of Lactobacillus crispatus, the NCIMB 13279 strain of Lactobacillus jensenii and NCIMB 702820 strain of Lactobacillus gasseri. [table] The other assayed microbial strains were cultured in the liquid media and in the incubation conditions specified in table A, following the operating procedure described above. Immediately”

[5] = test system: Lactobacillus jensenii NCIMB 13279; assay: MBC against Lactobacillus jensenii
Description: as §2

Substance | MIC [1] [%] | MBC [2] [%] | MIC [3] [%] | MIC [4] [%] | MBC (Streptococcus agalactiae; ATCC 12386 in M-Hb blood 2%) | MBC (Streptococcus agalactiae; Strain 2 in M-Hb blood 2%) | MBC (Streptococcus agalactiae; Strain 10 in M-Hb blood 2%) | MBC (Streptococcus agalactiae; Strain 11 in M-Hb blood 2%) | MBC [5] [%]
caprylyl/capryl glucoside/C8-C10 alkyl polyglucoside [Substance A1] | 0.193 | 0.193 | 0.097 | 0.097 | 0.097 | 0.097 | 0.194 | 0.097 | 0.193
lauryl glucoside/C12-C16 alkyl polyglucoside [Substance A2] | 0.077 | 0.077 | 0.038 | 0.077 | 0.0097 | 0.0097 | 0.019 | 0.0097 | 0.077
